Values of other authors as cited in patent US20200281890A1, “COMPOSITIONS COMPRISING CANNABIDIOL, TETRAHYDROCANNABINOL, TERPENES, AND […] USE THEREOF IN THE TREATMENT OF INSOMNIA” (CANOPY HEALTH INNOVATIONS, priority 2017, published 2020).

Assays:
mouse = settings: up to 80 mg/kg
5-HT1A receptor = target: T1, 5-HT1A receptor (Homo sapiens, UniProt P08908)
T1 sequence (P08908 1-422): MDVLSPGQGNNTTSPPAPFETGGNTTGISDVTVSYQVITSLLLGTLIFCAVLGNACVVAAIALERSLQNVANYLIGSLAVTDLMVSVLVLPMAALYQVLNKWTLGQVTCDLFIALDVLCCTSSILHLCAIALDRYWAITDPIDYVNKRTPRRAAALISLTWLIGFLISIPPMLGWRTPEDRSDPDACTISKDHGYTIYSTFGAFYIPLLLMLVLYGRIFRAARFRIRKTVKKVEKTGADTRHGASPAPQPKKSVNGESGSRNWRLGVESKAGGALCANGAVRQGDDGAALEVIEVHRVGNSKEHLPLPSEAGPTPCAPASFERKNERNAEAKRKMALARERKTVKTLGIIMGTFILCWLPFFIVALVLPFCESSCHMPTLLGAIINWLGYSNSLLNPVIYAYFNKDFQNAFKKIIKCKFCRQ

CB1 receptor = CB1 receptor (Homo sapiens, UniProt P21554)
[1] = tested on: mice, rats, gerbils and non-human primates
CB2 receptor = CB2 receptor (Homo sapiens, UniProt P34972)
Chain of CB2 receptor (P34972 whole entry): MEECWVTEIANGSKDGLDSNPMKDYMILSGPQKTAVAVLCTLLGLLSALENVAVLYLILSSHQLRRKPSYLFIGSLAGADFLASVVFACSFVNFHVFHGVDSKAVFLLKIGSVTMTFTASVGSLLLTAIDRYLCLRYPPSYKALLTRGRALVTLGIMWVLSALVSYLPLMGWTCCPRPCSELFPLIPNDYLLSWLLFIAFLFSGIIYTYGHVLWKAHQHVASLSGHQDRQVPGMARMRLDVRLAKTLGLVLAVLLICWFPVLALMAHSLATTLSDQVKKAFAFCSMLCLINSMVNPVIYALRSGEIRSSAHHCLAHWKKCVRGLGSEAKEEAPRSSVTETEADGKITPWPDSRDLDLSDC

Chain of CB1 receptor (P21554 whole entry): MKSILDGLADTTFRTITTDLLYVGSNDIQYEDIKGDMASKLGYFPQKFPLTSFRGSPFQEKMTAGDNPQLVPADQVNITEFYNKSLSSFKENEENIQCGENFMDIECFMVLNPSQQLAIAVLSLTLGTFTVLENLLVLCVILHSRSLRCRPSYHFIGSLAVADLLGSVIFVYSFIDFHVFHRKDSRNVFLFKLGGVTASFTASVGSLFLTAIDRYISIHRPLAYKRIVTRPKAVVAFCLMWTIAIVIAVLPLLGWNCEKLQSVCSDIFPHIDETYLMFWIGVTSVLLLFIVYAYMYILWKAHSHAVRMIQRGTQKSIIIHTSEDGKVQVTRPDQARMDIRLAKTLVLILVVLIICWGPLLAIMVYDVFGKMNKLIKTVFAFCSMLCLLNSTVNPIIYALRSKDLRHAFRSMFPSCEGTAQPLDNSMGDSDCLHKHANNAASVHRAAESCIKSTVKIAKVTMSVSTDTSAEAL

SMILES	effect in mouse tetrad test (locomotor suppression, catalepsy, hypothermia and analgesia) (mouse)	a2-adrenergic receptor affinity and function (a2-adrenergic receptor)	5-HT1A receptor affinity and function (5-HT1A receptor)	CB1 receptor affinity and function (CB1 receptor)	THC-like activity [1]	CB2 receptor binding and function (CB2 receptor)	function at the CB1 receptors (CB1 receptor)	affinity to CB2 receptors relative to CB1 (CB2 receptor; lower affinities in comparison to THC)
CCCCCc1cc(O)c(C/C=C(\C)CCC=C(C)C)c(O)c1 [CBG, cannabigerol]	without effect	high affinity a2-adrenergic receptor agonist	moderate affinity 5-HT1A receptor antagonist	low affinity CB1 receptor antagonist	does not trigger THC-like activity	antagonist		
CCCCCc1cc(O)c2c(c1)OC(C)(C)c1ccc(C)cc1-2 [CBN, cannabinol]							partial agonist	higher affinity to CB2 receptors
